# From patent publication US20050272720A1 (priority 2004, published 2005)
# Experiment: Solid-state stability of olanzapine acetate under normal conditions
# Format: physicochemical
# Source text: The olanzapine acetate in solid state is a particulate material, with no or minimal tendency of reversible absorption of water from the environment, and with good handling properties.
smiles,measurement,value
Cc1cc2c(s1)Nc1ccccc1N=C2N1CCN(C)CC1 [olanzapine acetate],stability under normal conditions of temperature and moisture,sufficiently stable
